Data on 9 compounds can be found in publication PMC4267740, “Unprecedented Therapeutic Potential with a Combination of A2A/NR2B Receptor Antagonists as Observed in the 6-OHDA Lesioned Rat Model of Parkinson's Disease” (PLoS ONE, 2014).

Data set [1] deals with haloperidol-induced catalepsy. Particulars: threshold dose of Theophylline; cited from earlier work.
In data set [2] the test system is L-Dopa-induced dyskinesia. Further details: method as in PMID 18759356. Particulars: randomized double-blind placebo-controlled clinical trial; cited from earlier work.
The subject of data set [3] is rats with a unilateral lesion of the medial forebrain bundle. Particulars: cited from earlier work.
In data set [4] the test system is Reserpine-induced akinesia. The arrangement: method as in PMID 9918703. Particulars: cited from earlier work.
Data set [5] deals with unilateral 6-OHDA-lesioned rats. In words: Rearing counts in actometers, monotherapy (without L-Dopa). The class given is in vivo, rat. The method, then: (§1) To protect norepinephrinergic neurons, animals were administered imipramine HCl (Sigma) 15 minutes before surgery. They were subsequently anesthetized with ketamine (Ceva, 75 mg/kg) and xylazine (Bayer, 10 mg/kg) and placed in stereotaxic frame (David Kopf Instrument). 6-OHDA was injected into the right ascending medial forebrain bundle at the following coordinates (in mm) relative to bregma and surface of the dura, AP = −3.5, ML = −1.5, DV = −8.7. Each rat received one injection of 6-OHDA (4 µg/µl) over a period of 5 minutes (0.5 µl/min) for a total of 10 µg per rat. Animals were monitored for 3 weeks to ensure full recovery and habituation to the environment and experimenters.
(§2) On day 21 post surgery, all rats were challenged with a small dose of subcutaneously administered apomorphine (Sigma, 0.05 mg/kg). Rats showing more than 90 contralateral rotations (360°) over a 45-minute recording period were included in the study. […] For each experiment, rats were allocated to the different experimental groups in order to get the same mean level of basal activity measured at the apomorphine challenge amongst the different experimental groups.
(§3) Drug-naïve separate rats were tested individually in clear acrylic chambers (LE8811 IR, Panlab). Locomotion was detected and measured by 16 infrared light-beam sensors located on each side of the enclosure at a height of 3 cm. Sensors were spaced such that the light beams formed a matrix of 15×15 squares over the surface. Activity counts were recorded on a computer and Acti-Track software (Actitrack, Panlab) was used to convert raw data into “distance traveled” and “rearing counts” for analysis as relevant dependent variables.
(§4) Six different combinations of A2A/NR2B antagonists were tested without L-Dopa. For each combination, there were four different procedures: vehicle only; A2A antagonist followed by vehicle; vehicle followed by the NR2B antagonist and A2A antagonist followed by the NR2B antagonist. The drugs, doses and combinations are described in Table 3. After drug administration, rats were placed in actometers (open-field) for monitoring the general level of motor activity (distance traveled and rearing counts).
(§5) Before undertaking the study, each A2A and NR2B antagonist was tested individually. The doses were selected on the basis of preliminary dose-response curves performed separately for each drug and submaximal dose (i.e. response observed is not at its maximal level) of each drug was selected for the combination studies. The two drugs were administered separately via an intraperitoneal (ip) injection with a 2-minute interval between the two drugs. Five minutes after the second injection, animals were placed in the testing cage for behavioural recording. Due to formulation and exposure issues, Tozadenant and Radiprodil had to be administered orally and therefore recording was started 60 minutes post dosing at this corresponds to maximum plasma concentrations. Eight drug-naïve animals were used for each of the four procedures; 32 in total for each combination. All behavioral experiments were conducted between 8.00 AM and 2.00 PM at the latest. Preliminary pharmacokinetic assays investigated the plasma and brain disposition of selected drugs administered alone or in combination (ie. Tozadenant/Radiprodil, and Sch-58261/Co-101244; 3 animals per group). Tozadenant and Radiprodil were measured in samples obtained 60 minutes after single oral administration at 30 mg/kg. Sch-58261 and Co-101244 were measured in samples collected 90 min after single intraperitoneal administration at 3 mg/kg.
(§6) The effects of A2A and NR2B antagonists on the level of motor activity (i.e. distance traveled and rearing counts) were assessed with three-way mixed ANOVA, combining the A2A receptor antagonist (2 levels, vehicle and the A2A drug) and the NR2B antagonist (2 levels, vehicle and the NR2B drug) as between-group factors with the time as within-subjects factor (6 or 9 levels). […]

The test system of a further data set is PD patients. Particulars: cited from earlier work.
The next data set addresses A1. Further details: method as in PMID 21810444, PMID 9933143, PMID 17236762. Particulars: in vitro binding; rat or human; cited from earlier work.
In the next data set the test system is P-gp. Further details: method as in PMID 18552277. Particulars: human subjects; cited from earlier work.
The next data set relates to CYP3A. Further details: method as in PMID 18552277. As to conditions: human subjects; cited from earlier work.
The target of another data set is A3. The arrangement: method as in PMID 21810444, PMID 9933143, PMID 17236762. As to conditions: in vitro binding; rat or human; cited from earlier work.
Another data set concerns the target A2B. The arrangement: method as in PMID 21810444, PMID 9933143, PMID 17236762. As to conditions: in vitro binding; rat or human; cited from earlier work.
A further data set concerns the target A2A. Further details: method as in PMID 21810444, PMID 9933143, PMID 17236762. Particulars: in vitro binding; rat or human; cited from earlier work.
Data set [6] deals with unilateral 6-OHDA-lesioned rats. In words: Distance traveled in actometers, monotherapy (without L-Dopa). The class given is in vivo, rat. On the procedure: as §1, §2, §3, §4, §5, §6
Data set [7] has the same test system. In words: L-Dopa-induced contralateral rotations in rotometers, add-on therapy. The format is in vivo, rat. As to conditions: add-on to L-Dopa 25 mg/kg ip, Preladenant 0.03 mg/kg ip. The method, then:
as §1, §2
The rats tested one week earlier for general activity (actometers) were once again placed in clear acrylic individual chambers (50×45 cm) with the same treatment (drug and dose) than that previously received plus L-Dopa. Eight chambers were placed on a level, clear glass bottom, held by a robust frame, and were subdivided into four individual test cages of 25×22 cm. A removable acrylic plate served as a lid.
Rotational behaviour was recorded using a home-made computerized system. Rats were fixed in a harness and linked to mechanical sensors connected directly to a computer. Each 360° clock-wise or counter clock-wise turn was automatically recorded for up to 120 minutes at the maximum. Throughout the experiments, rats were allocated to individual test cages.
Four different combinations were administered as add-on treatment to a low active dose of L-Dopa (25 mg/kg, ip) without any dopa decarboxylase inhibitor to avoid any additional pharmacokinetic interaction. The doses of the compounds were selected on the basis of preliminary dose-response curves performed separately for each drug. To avoid ceiling effect with L-Dopa, only submaximal doses of each drug were selected for testing (as it was done previously for monotherapy). Eight L-Dopa naïve animals were tested for each of the four pharmacological condition: vehicle and L-Dopa (25 mg/kg); A2A antagonist followed by vehicle and L-Dopa; vehicle followed by NR2B antagonist and L-Dopa; A2A antagonist followed by NR2B and L-Dopa. Due to the dominance of the L-Dopa-effect on the lesioned striatum, the unilateral 6-OHDA-lesioned rats rotated after the drugs administration and behavioral activity was recorded in rotometers (i.e. level of contralateral rotations).
All drugs were administered i.p. 25 minutes before behavioural recording, except for the Tozadenant and Radiprodil combination which was administered orally 60 minutes before behavioural recording. As Radiprodil was administered orally, L-Dopa was given 45 minutes after the Radiprodil injection whereas for the other combinations L-Dopa was given 15 minutes after the NR2B drug. The drugs, the doses and the combinations given in co-administration to L-Dopa are described in Table 4 .
The impact of treatment with A2A or NR2B receptor antagonists, given alone or in combination, on the effect of L-Dopa on contralateral rotations was also analysed with a three-way mixed ANOVA. The ANOVA included the A2A and the NR2B receptor antagonists (both, 2 levels, vehicle and the drug) as between-group factors combined with time (12 levels) as within-subjects factor. […] The ability of the combination to increase and prolong the activity of L-Dopa was also explored. Consequently, drug effects were analyzed for every 10-min time interval. […]

A further data set relates to P-glycoprotein (Pgp). The arrangement: method as in earlier work. Particulars: ref 62 (Preladenant), 49 (Merck 22); cited from earlier work.
For the next data set, the system named is cytochrome P-450 (CYP). Further details: method as in earlier work. As to conditions: ref 62 (Preladenant), 49 (Merck 22); cited from earlier work.
The subject of data set [8] is unilaterally 6-OHDA-lesioned rats. The arrangement: method as in PMID 15081591. As to conditions: rotometer; cited from earlier work.
Where [9] appears, read: Istradefylline 0.3 mg/kg ip, Co-101244 1 mg/kg ip.
[10] abbreviates: Preladenant 0.1 mg/kg ip, Merck 22 0.3 mg/kg ip.
[11] abbreviates: Preladenant 0.1 mg/kg ip, Radiprodil 1 mg/kg ip.

SMILES strings stand for the structures. Entries after “also recorded” stand apart in the source; their conditions may differ.

Regarding `C/C(=C\C(N)C(=O)O)CP(=O)(O)O` (stereo not drawn) [CGP37849], in [1], the “Effect of co-administration with Theophylline on haloperidol-induced catalepsy” value is given as “potentiate the effects of a threshold dose of Theophylline”.

Turning to `C[C@@H]([C@@H](O)c1ccc(O)cc1)N1CCC(O)(c2ccccc2)CC1` [CP-101,606], in [2], the “Efficacy in counteracting L-Dopa-induced dyskinesia” value is given as “demonstrated efficacy”.

As for `O=C(O)C1CN(CCCP(=O)(O)O)CCN1` (stereo not drawn) [CPP], in data set [3], the “Effect on stepping deficit” value is recorded as “ameliorate the stepping deficit”.

Consider `CC(C(O)c1ccc(O)cc1)N1CCC(Cc2ccccc2)CC1` (stereo not drawn) [Ifenprodil], for which, in data set [4], the “Effect on Reserpine-induced akinesia” value is on record as “counteract Reserpine-induced akinesia at the highest dose tested”.

Consider `CCn1c(=O)c2c(nc(/C=C/c3ccc(OC)c(OC)c3)n2C)n(CC)c1=O` [Istradefylline], for which, in data set [5] (setting [9]), the “Rearing counts, drugs alone vs vehicle, p (Newman-Keuls)” value is “Istradefylline, p<0.01”; the “Rearing counts, drugs main effect, p (three-way mixed ANOVA)” value (“Rearing counts, drugs main effect, p” below) is given as “p<0.001”; the “Rearing counts, drugs × time effect, p (three-way mixed ANOVA)” value (“Rearing counts, drugs × time effect, p” below) is “p<0.01”. In the data set on PD patients (PD patients), the “Clinical efficacy when combined with L-Dopa” value was “demonstrated significant efficacy”. The “Clinical benefit as monotherapy (without L-Dopa)” value in the data set with PD patients (de-novo PD patients) was “did not produce statistically significant benefits”. For the same compound, the Ki at A1 was 841 nM. In addition, the “Inhibition of P-gp” value in the data set on P-gp is listed as “modest inhibition”. In addition, the “Effect on CYP3A-mediated drug metabolism” value with CYP3A is on record as “does not impair”. The Ki at A3 is 4470 nM. The Ki on A2B is above 10000 nM. Also, on A2A, the inhibitory constant (Ki) is 12 nM. For the same compound, in [6] (setting [9]), the “Distance traveled, drugs alone vs vehicle, p (Newman-Keuls)” value is “not all drugs when administered alone improved distance traveled; also recorded: Not significant”; the “Distance traveled, drugs main effect, p (three-way mixed ANOVA)” value (from here on “Distance traveled, drugs main effect, p”) is recorded as “p<0.001”; the “Distance traveled, drugs × time effect, p (three-way mixed ANOVA)” value is on record as “Not significant”.

Turning to `Cc1ccc(COC(=O)N2CC[C@H](CNc3ncccn3)[C@H](F)C2)cc1` [MK-0657], the “Result of clinical study as monotherapy” value with PD patients (single clinical study) is listed as “negative results”.

For the compound `COCCOc1ccc(N2CCN(CCn3ncc4c3nc(N)n3nc(-c5ccco5)nc43)CC2)cc1` [Preladenant], in [7] (Merck 22 1 mg/kg ip), the “Contralateral rotations, drugs alone vs vehicle, p (planned contrasts on each 10-min interval)” value was “Not significant”; the “Contralateral rotations, drugs main effect, p (three-way mixed ANOVA)” value is reported as “p<0.05”; the “Contralateral rotations, drugs × time effect, p (three-way mixed ANOVA)” value was “p<0.001”. In addition, in [7] (Radiprodil 0.3 mg/kg ip), the “Contralateral rotations, drugs alone vs vehicle, p (planned contrasts on each 10-min interval)” value is recorded as “Not significant”; the “Contralateral rotations, drugs main effect, p (three-way mixed ANOVA)” value was “p<0.01”; the “Contralateral rotations, drugs × time effect, p (three-way mixed ANOVA)” value is recorded as “p<0.001”. Moreover, in data set [5] (setting [10]), the “Rearing counts, drugs alone vs vehicle, p (Newman-Keuls)” value is “Preladenant p<0.001”; the “Rearing counts, drugs main effect, p” value is recorded as “p<0.001”; the “Rearing counts, drugs × time effect, p” value is “p<0.001”. For the same compound, in data set [5] (setting [11]), the “Rearing counts, drugs alone vs vehicle, p (Newman-Keuls)” value is recorded as “Preladenant p<0.001”; the “Rearing counts, drugs main effect, p” value is given as “p<0.001”; the “Rearing counts, drugs × time effect, p” value is reported as “Not significant”. Also, the Ki at A1 is above 1000 nM. At A3, the Ki was above 1000 nM. Moreover, the “In-vitro drug interactions with P-glycoprotein (Pgp)” value with P-glycoprotein (Pgp) was “devoid of in-vitro risks of drug interactions”. At A2B, the Ki was above 1700 nM. For the same compound, the “In-vitro drug interactions with cytochrome P-450 (CYP)” value with cytochrome P-450 (CYP) was “devoid of in-vitro risks of drug interactions”. In data set [6] (setting [10]), the “Distance traveled, drugs alone vs vehicle, p (Newman-Keuls)” value is recorded as “Preladenant: p<0.001”; the “Distance traveled, drugs main effect, p” value is listed as “p<0.001”; the “Distance traveled, drugs × time effect, p (three-way mixed ANOVA)” value was “Not significant”. In data set [6] (setting [11]), the “Distance traveled, drugs alone vs vehicle, p (Newman-Keuls)” value is “Both p<0.05”; the “Distance traveled, drugs main effect, p” value is “p<0.001”; the “Distance traveled, drugs × time effect, p (three-way mixed ANOVA)” value was “Not significant”. Besides, the “Distance traveled, drug alone in comparison to vehicle-treated controls” value in data set [6] (drug administered alone) was “significant increase”.

Take `CC(C(O)c1ccc(O)cc1)N1CCC(Cc2ccccc2)CC1` (stereo not drawn) [Ro 25–6981]: the “Induction of contralateral rotations as monotherapy” value in data set [8] is “inducing contralateral rotations”.

With `C[C@]12N[C@H](Cc3ccccc31)c1ccccc12` [dizocilpine], the “Effect of co-administration with Theophylline on haloperidol-induced catalepsy” value in [1] is “potentiate the effects of a threshold dose of Theophylline”.

By Ki is commonly meant the equilibrium dissociation constant of an inhibitor or competing ligand from its target.
